Entries after “also recorded” stand apart in the source; their conditions may differ.
Experiments:
kidney cancer cell lines = assay: MTT cytotoxic assay in kidney cancer cell lines (FIG. 8); type: cell-based; settings: kidney cancer cells; 1, 10 or 20 μM in complete media; 48 hr
Description: The kidney cancer cells were incubated in serum-free media for 16 hr and treated with vehicle (DMSO) and serum-containing complete media (CM) alone or the indicated compounds (at 1, 10 or 20 μM) in CM. After 48 hr, the MTT assay was performed as described below. The visible absorbance of each well was quantified using a microplate reader.
(§1) A 200 μL aliquot of cells (1×10^3 cells in quiescent media) was added to a 96 well plate and incubated for 18 hr at 37° C. in a humidified incubator containing 5% CO2 in air. After incubation, each condition of small molecule ligands (No. 4, 7, and 10) was added into each well for 48 hr and for synergic assay of Doxorubicin, after incubation for 6 hr with compound No. 10, Doxorubicin dissolved in DMSO was added to each of the 96 wells and incubated for 42 hr. Control cultures were treated with DMSO. After incubation, a 20 μL MTT solution (5 mg/mL in phosphate buffer) was added to each well and the incubation continued for 4 hr, after which time the solution in each well was carefully removed. The blue crystalline precipitate in each well was dissolved in DMSO 200 μL). The visible absorbance at 560 nm of each well was quantified using a microplate reader.

p21 [1] = target: T1, p21 (Homo sapiens, UniProt P38936); assay: Immunoblotting of p21 protein levels in RCC cells; type: cell-based; settings: serum-starved ACHN and A-498 cells; 10, 50 and 100 μM; immunoblot
T1 sequence (P38936 whole entry): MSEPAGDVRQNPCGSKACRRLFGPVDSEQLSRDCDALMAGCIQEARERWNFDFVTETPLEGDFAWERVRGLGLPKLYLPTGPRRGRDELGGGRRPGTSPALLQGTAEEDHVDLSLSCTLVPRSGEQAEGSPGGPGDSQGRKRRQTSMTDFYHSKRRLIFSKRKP
Text: (§2) Chemiluminescence was detected using enhanced ECL.

p27 = assay: Immunoblotting of p27 protein levels in RCC cells; type: cell-based, human; settings: all concentrations examined (10, 50, 100 μM); immunoblot
Text: as §2

ACHN and A-498 cells [2] = assay: Apoptosis by PARP cleavage (immunoblot) in RCC cells; settings: up to 72 h
Description: Cells were harvested and immunoblotted with p57, p27, and p21. […] Cells were harvested and immunoblotted with PARP and p21. β-actin is a gel-loading control.
Cells were washed with PBS and lysed in lysis buffer (50 mM HEPES, 1% Triton X-100, 10 mM sodium pyrophosphate, 100 mM sodium fluoride, 4 mM EDTA) at 0° C. Cell lysates were centrifuged (13,000×g, 4° C., 20 min) and the supernatants were electrophoresed and immunoblotted. For immunoprecipitation, cell lysates were incubated with p21 antibody agarose-conjugate overnight at 4° C. and immunoprecipitates were washed five times with lysis buffer. The bound proteins were eluted with SDS sample buffer and elctophoresed and immnoblotted. The membranes were blocked in 5% non-fat dry milk for 1 hr at room temperature, and probed with appropriate antibodies. Membranes were then probed with HRP-tagged anti-mouse or anti-rabbit IgG antibodies diluted 1:5,000-1:15,000 in 5% non-fat dry milk for 1 hr at room temperature. Chemiluminescence was detected using enhanced ECL.

ACHN and A-498 cells [3] = assay: MTT cytotoxic assay (cell viability) in RCC cell lines; type: cell-based, human; settings: 10, 50 and 100 μM in complete media, 48 hr
Description: After 48 hr, the MTT assay was performed as described below. The visible absorbance of each well was quantified using a microplate reader.
ACHN and A498 human RCC cells (from ATCC) were maintained in MEM 1× media supplemented with 10% fetal bovine serum, 2 mM L-glutamine, 1 mM sodium pyruvate, 0.1 mM non-essential amino acid, and 0.75% sodium bicarbonate at 37° C. in a humidified incubator containing 5% CO2 in air.
as §1

[4] = target: T2, GST-tagged p21 recombinant protein (GST-p21) (Homo sapiens, UniProt P38936); assay: Two-step OBOC bead screening with recombinant GST-p21; type: binding; settings: OBOC beads, GST-p21 probe, GST-alone subtraction
T2 construct: purchased ProSpec-Tany TechnoGene Ltd. (Rehovot, Israel)
T2 sequence (P38936 whole entry): as above
Description: OBOC beads tethered with small molecule ligands were incubated with recombinant GST-p21 (or GST alone as control) and incubated with anti-GST antibodies conjugated with alkaline phosphatase. Blue beads in stage 2 were discarded and the true positive beads (i.e., clear beads in stage 2 which indicate binding only to p21) were picked up and submitted for MS decoding.
A two-step screening of the small molecule OBOC combinatorial library was performed using GST-tagged p21 recombinant protein (GST-p21) from ProSpec-Tany TechnoGene Ltd. (Rehovot, Israel) (FIG. 2). Screening was conducted in small disposable chromatography columns. Each screening used 25,000-30,000 beads that were first blocked with 0.1% BSA in PBS with 0.1% Tween 20 (PBST). In Stage 1 of the procedure, the beads were incubated with a 1:10,000 dilution of GST-p21, washed, incubated with anti-GST antibody conjugated with alkaline phosphatase (anti-GST-AP), washed, and incubated with the phosphatase substrate 5-bromo-4-chloro-3-indolyl-phosphate (BCIP). Beads became blue and were selected for next step. Stage 2 of the procedure was to remove the false positive beads that are interacting with GST and anti-GST-AP not p21. The beads from Stage 1 were incubated with 8 M guanidine-HCl for removing bound proteins and DMF for removing blue color followed by PBST washing and re-blocking with PBST. And then the beads were incubated with GST alone, washed, incubated with anti-GST-AP, washed, and incubated with the phosphatase substrate BCIP. From this step, the clear beads were considered true positive beads, therefore they were selected and deproteinated with 8 M guanidine-HCl prior to decoding with mass spectrometry.

p57 = assay: Immunoblotting of p57 protein levels in RCC cells; type: cell-based, human; settings: all concentrations examined (10, 50, 100 μM); immunoblot
Text: as §2

ACHN and A-498 cells [5] = assay: MTT synergy assay with doxorubicin; type: cell-based, human; settings: 100 μM, after 6 h doxorubicin 0.1 and 0.25 μM for 42 h
Description: (§3) After 6 h, doxorubicin was added (0.1 and 0.25 μM) in serum containing media followed in 42 h by (a) the MTT assay as described below; and (b) immunoblotting with PARP, p21, and β-actin.
as §1

p21 [6] = target: T1, p21; assay: p21 stability with cycloheximide or proteasome inhibitors (immunoblot); type: cell-based; settings: ACHN and A-498 cells; 100 μM; with cycloheximide 10 μg/ml or proteasome inhibitors (lactacystin, LLnL, MG132, 20 μM)
Description: ACHN and A-498 cells were incubated in serum-free media for 16 hr and treated with (a) compound 10 (100 μM), cycloheximide (CHX, 10 μg/ml), or compound 10 plus CHX for the indicated time, or (b) three different proteasome inhibitors (lactascystin, 20 μM; LLnL, 20 μM; MG132, 20 μM) for 6 h and followed by incubation of compound 10 (100 μM) for the indicated time. The density ratio of p21/actin is shown. Q refers to cells incubated in serum-free media only; P refers to cells incubated with PDGF only.
as §2

ACHN and A-498 cells [7] = assay: Apoptosis (PARP immunoblot) in combination with doxorubicin; type: cell-based, human; settings: 100 μM, after 6 h doxorubicin 0.1 and 0.25 μM for 42 h
Description: as §3, §2

p21 [8] = target: T1, p21; assay: p21 ubiquitinylation (immunoprecipitation with p21 antibody, ubiquitin immunoblot); type: cell-based; settings: ACHN and A-498 cells; 100 μM
Description: ACHN and A-498 cells were incubated in serum-free media for 16 hr and treated or not treated with compound 10 (100 μM) for the indicated times. Cells were harvested and immunoprecipitated with p21 antibody-agarose conjugate and immuno-blotted with either p21 or ubiquitin. Ponceau-staining heavy chain of anti-p21-IgG was performed on the same lysate as loading control.
as §2

Structure (SMILES)	cell survival / cell viability (MTT assay) (kidney cancer cell lines)	p21 protein levels (p21 [1])	p27 protein levels (p27)	apoptosis as measured by PARP cleavage (ACHN and A-498 cells [2])	cell survival / cell viability (MTT assay) (ACHN and A-498 cells [3])	binding to p21 [4]	p57 protein levels (p57)	further results
Cc1ccccc1NC(=O)NC(CC(N)=O)c1ccc2c(c1)nc(-c1cccc(Oc3ccc(C(C)(C)C)cc3)c1)n2CCCN1CCCCC1C (centres unmarked) [LLW15]	dose-dependent inhibition of cell survival; also recorded: decreasing cell viability	–	–	–	–	–	–	–
CCN(CC)CCCn1c(-c2cccc(Oc3ccc(C(C)(C)C)cc3)c2)nc2cc(C(CC(N)=O)NC(=O)Nc3ccccc3C)ccc21 (centres unmarked) [LLW33]	dose-dependent inhibition of cell survival; also recorded: decreasing cell viability	–	–	–	–	–	–	–
Cc1ccccc1NC(=O)NC(CC(N)=O)c1ccc2c(c1)nc(-c1cccc(Oc3ccc(C(C)(C)C)cc3)c1)n2CCCN1CCCC1 (centres unmarked) [LLW36]	dose-dependent inhibition of cell survival; also recorded: decreasing cell viability	–	–	–	–	–	–	–
Cc1ccccc1NC(=O)NC(CC(N)=O)c1ccc2c(c1)nc(-c1cccc(Oc3ccc(C(C)(C)C)cc3)c1)n2CCC1CCCCN1C (centres unmarked) [LLW38]	dose-dependent inhibition of cell survival; also recorded: decreasing cell viability	–	–	–	–	–	–	–
Cc1ccccc1NC(=O)NC(CC(N)=O)c1ccc2c(c1)nc(-c1cccc(Oc3ccc(C(C)(C)C)cc3)c1)n2CCCN1CCC(C)CC1 (centres unmarked) [LLW39]	dose-dependent inhibition of cell survival; also recorded: decreasing cell viability	–	–	–	–	–	–	–
Cc1ccccc1NC(=O)NC(CC(N)=O)c1ccc2c(c1)nc(-c1cccc(Oc3ccc(C(C)(C)C)cc3)c1)n2CC[C@@H]1CCCN2CCCC[C@H]12 (some centres unmarked) [LLW40]	dose-dependent inhibition of cell survival; also recorded: decreasing cell viability	–	–	–	–	–	–	–
Cc1ccccc1NC(=O)NC(CC(N)=O)c1ccc2c(c1)nc(-c1cccc(Oc3ccc(C(C)(C)C)cc3)c1)n2C1CCN(Cc2ccccc2)CC1 (centres unmarked) [LLW42]	dose-dependent inhibition of cell survival; also recorded: decreasing cell viability	–	–	–	–	–	–	–
Cc1ccc(C)c(-c2nc3cc(C(CC(N)=O)NC(=O)Nc4ccccc4C(C)(C)C)ccc3n2CCCN2CCCCC2C)c1 (centres unmarked) [No. 4]	–	markedly and specifically inhibited	no affect	increased	dose-dependent inhibition of cell survival; also recorded: decreased; also recorded: decreasing cell viability	p21-binding	no affect	–
Cc1ccc(C)c(-c2nc3cc(C(CC(N)=O)NC(=O)Nc4ccccc4C)ccc3n2CCCN2CCCCC2C)c1 (centres unmarked) [No. 7]	–	markedly and specifically inhibited	no affect	increased	dose-dependent inhibition of cell survival; also recorded: decreased; also recorded: decreasing cell viability	p21-binding	no affect	–
Cc1ccccc1NC(=O)NC(CC(N)=O)c1ccc2c(c1)nc(-c1c3ccccc3cc3ccccc13)n2CCCN1CCCCC1C (centres unmarked) [No. 10]	–	markedly and specifically inhibited	no affect	increased	dose-dependent inhibition of cell survival; also recorded: decreased; also recorded: decreasing cell viability	p21-binding	no affect	cell survival in combination with doxorubicin (MTT assay) (ACHN and A-498 cells [5]): synergistic decrease in cell survival; also recorded: synergistic anti-proliferative activity; p21 stability (p21 [6]): decreases p21 stability via a proteasome-mediated pathway; apoptosis in combination with doxorubicin (PARP immunoblot) (ACHN and A-498 cells [7]): increase in apoptosis; ubiquitinylation of p21 (p21 [8]): causes ubiquitinylation of p21; also recorded: p21 protein is bound by ubiquitin

— patent publication US20110301192A1, “Inhibitors of Cyclin Kinase Inhibitor p21” (The regents of the University of California, priority 2008, published 2011)
